The source made the active and inactive calls. The rule behind the calls is not given here.
Legend:
[1] = molecular target: T1, CDK8/Cyclin C (Homo sapiens, UniProt P49336); assay: Inhibition of kinase tracer 236 binding to His tagged recombinant human CDK8/cyclin C incubated for 60 min FRET based LanthaScreen Eu-Kinase binding assay; format: protein-complex assay
[2] = Inhibition of NF kappa B dependent CDK8/CDK19 in HEK293 cell incubated for 3 hrs in presence of TNF-alpha by Spectra max microtitre plate reader; format: cell-based; conditions: Homo sapiens, HEK293, 3 h
[3] = molecular target: T2, Mitogen-activated protein kinase kinase kinase kinase 2 (Homo sapiens) (UniProt Q12851); assay: Inhibition of human MAP4K2 at 2 uM by competition binding assay relative to control; conditions: values are per cent of control
T2 sequence (whole entry): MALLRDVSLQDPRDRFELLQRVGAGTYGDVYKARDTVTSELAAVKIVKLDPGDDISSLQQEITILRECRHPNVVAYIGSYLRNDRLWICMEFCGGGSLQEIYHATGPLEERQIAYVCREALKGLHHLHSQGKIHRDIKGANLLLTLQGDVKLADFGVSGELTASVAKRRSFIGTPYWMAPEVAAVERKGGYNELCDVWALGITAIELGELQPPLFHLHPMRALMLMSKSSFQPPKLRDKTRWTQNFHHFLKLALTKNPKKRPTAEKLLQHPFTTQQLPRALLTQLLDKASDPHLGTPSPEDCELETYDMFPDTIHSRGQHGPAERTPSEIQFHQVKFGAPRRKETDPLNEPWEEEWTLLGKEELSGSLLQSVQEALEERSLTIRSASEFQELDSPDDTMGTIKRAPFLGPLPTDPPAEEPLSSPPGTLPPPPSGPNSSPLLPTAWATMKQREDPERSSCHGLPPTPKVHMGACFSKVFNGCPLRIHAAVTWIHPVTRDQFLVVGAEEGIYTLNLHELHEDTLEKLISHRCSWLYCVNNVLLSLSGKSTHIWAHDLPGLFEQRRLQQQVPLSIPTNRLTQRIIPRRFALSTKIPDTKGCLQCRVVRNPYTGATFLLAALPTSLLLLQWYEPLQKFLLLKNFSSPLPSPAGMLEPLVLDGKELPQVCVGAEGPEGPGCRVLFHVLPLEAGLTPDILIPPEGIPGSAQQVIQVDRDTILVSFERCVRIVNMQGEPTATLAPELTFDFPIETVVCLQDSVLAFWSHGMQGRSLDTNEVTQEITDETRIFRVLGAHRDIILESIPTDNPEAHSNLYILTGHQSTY

[4] = molecular target: T3, Cyclin-C/Cyclin-dependent kinase 19 (Homo sapiens) (UniProt Q9BWU1+P24863); assay: Binding affinity to recombinant human CDK19/cyclinC assessed as rate constant (kon) by TR FRET based assay; format: protein-complex assay
[5] = molecular target: CDK8/Cyclin C (Homo sapiens) (UniProt P49336+P24863); assay: Binding affinity to kinase tracer 236 binding to His tagged recombinant human CDK8/cyclinC assessed as mean residence time by TR FRET based assay; format: protein-complex assay
[6] = molecular target: T3, Cyclin-C/Cyclin-dependent kinase 19 (Homo sapiens); assay: Binding affinity to recombinant human CDK19/cyclinC assessed as half life by TR FRET based assay; format: protein-complex assay
[7] = molecular target: T1, CDK8/Cyclin C; assay: Binding affinity to kinase tracer 236 binding to His tagged recombinant human CDK8/cyclinC assessed as dissociation constant by TR FRET based assay; format: protein-complex assay
[8] = molecular target: Cyclin-C/Cyclin-dependent kinase 19 (Homo sapiens, UniProt Q9BWU1); assay: Binding affinity to recombinant human CDK19/cyclinC assessed as dissociation constant by TR FRET based assay; format: protein-complex assay
Cyclin-C/Cyclin-dependent kinase 19, sequence (Q9BWU1 whole entry): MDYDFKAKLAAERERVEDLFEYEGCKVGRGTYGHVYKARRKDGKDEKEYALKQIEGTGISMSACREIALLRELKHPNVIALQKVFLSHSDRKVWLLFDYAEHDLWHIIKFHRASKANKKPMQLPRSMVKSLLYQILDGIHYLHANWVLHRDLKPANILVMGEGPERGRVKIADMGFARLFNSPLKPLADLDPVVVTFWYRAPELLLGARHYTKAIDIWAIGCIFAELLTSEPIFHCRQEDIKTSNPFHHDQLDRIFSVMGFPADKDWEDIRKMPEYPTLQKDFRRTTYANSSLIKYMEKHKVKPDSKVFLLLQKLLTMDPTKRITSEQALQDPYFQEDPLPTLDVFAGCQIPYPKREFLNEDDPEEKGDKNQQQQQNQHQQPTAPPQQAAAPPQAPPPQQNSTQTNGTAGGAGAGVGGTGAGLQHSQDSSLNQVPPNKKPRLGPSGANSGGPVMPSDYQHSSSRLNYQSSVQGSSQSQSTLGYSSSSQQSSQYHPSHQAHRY
Cyclin-C/Cyclin-dependent kinase 19, sequence (P24863 whole entry, further chain): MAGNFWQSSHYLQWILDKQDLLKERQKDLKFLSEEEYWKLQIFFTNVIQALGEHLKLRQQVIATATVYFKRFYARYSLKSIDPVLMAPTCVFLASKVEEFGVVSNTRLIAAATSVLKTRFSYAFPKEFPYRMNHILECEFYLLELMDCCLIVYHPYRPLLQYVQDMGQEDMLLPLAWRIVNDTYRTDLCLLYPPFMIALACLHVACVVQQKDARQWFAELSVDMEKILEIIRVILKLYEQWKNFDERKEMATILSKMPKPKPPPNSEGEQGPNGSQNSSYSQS

[9] = test system: HEK293; assay: Inhibition of TNFalpha induced CDK8/19 dependent NF kappa B activity in Wild type HEK293 cell for 3 hrs by qt-PCR analysis; format: functional, cell-based; conditions: Homo sapiens
[10] = test system: HEK293; assay: Effect of compound on HEK293 cells assessed as mRNA expression in CDK8/19 dependent MYC gene in presence of pretreatment with TNFalpha for 2 hr by qPCR analysis; format: functional, cell-based; conditions: Homo sapiens
[11] = test system: HEK293; assay: Effect of compound on HEK293 cells assessed as expression of mRNA in NFkappaB induced CXCL8 gene in presence of pretreatment with TNFalpha for 2 hr by qPCR analysis; format: functional, cell-based; conditions: Homo sapiens
[12] = Elimination rate constant in tumor of BALB/c mouse xenografted with mouse CT26 cells at 2.5 mg/kg, iv by LC-MS/MS analysis; format: ADME, organism-based, Neoplasm
[13] = Cmax in tumor of BALB/c mouse xenografted with mouse CT26 cells at 2.5 mg/kg, iv by LC-MS/MS analysis; format: ADME, organism-based, Neoplasm; set-up: route intravenous, dose 2.5 mg/kg
[14] = AUC (0-24hrs) in tumor of BALB/c mouse xenografted with mouse CT26 cells at 2.5 mg/kg, iv by LC-MS/MS analysis; format: ADME, organism-based, Neoplasm; set-up: time < 24 hr, route intravenous, dose 2.5 mg/kg
[15] = Elimination rate constant in plasma of BALB/c mouse xenografted with mouse CT26 cells at 100 mg/kg, po by LC-MS/MS analysis; format: ADME, organism-based
[16] = Tmax in plasma of BALB/c mouse xenografted with mouse CT26 cells at 100 mg/kg, po by LC-MS/MS analysis; format: ADME, organism-based
[17] = Cmax in plasma of BALB/c mouse xenografted with mouse CT26 cells at 100 mg/kg, po by LC-MS/MS analysis; format: ADME, organism-based; set-up: route oral, dose 100 mg/kg
[18] = AUC(0-24h) in plasma of BALB/c mouse xenografted with mouse CT26 cells at 100 mg/kg, po by LC-MS/MS analysis; format: ADME, organism-based; set-up: time < 24 hr, route oral, dose 100 mg/kg; conditions: in vivo
[19] = test system: CT26; assay: Downregulation of CCL12 gene expression in BALB/c mouse xenografted with mouse CT26 cells at 100 mg/kg, po 2 to 12 hrs […]; format: functional, organism-based; conditions: time 2-12 hrs, TDE = time-dependent effect
[20] = Elimination rate constant in tumor of BALB/c mouse xenografted with mouse CT26 cells at 100 mg/kg, po by LC-MS/MS analysis; format: ADME, organism-based, Neoplasm
[21] = Half life in tumor of BALB/c mouse xenografted with mouse CT26 cells at 100 mg/kg, po by LC-MS/MS analysis; format: ADME, organism-based, Neoplasm
[22] = Tmax in tumor of BALB/c mouse xenografted with mouse CT26 cells at 100 mg/kg, po by LC-MS/MS analysis; format: ADME, organism-based, Neoplasm
[23] = AUC (0-24hrs) in tumor of BALB/c mouse xenografted with mouse CT26 cells at 100 mg/kg, po by LC-MS/MS analysis; format: ADME, organism-based, Neoplasm; set-up: time < 24 hr, route oral, dose 100 mg/kg

T1 sequence (P49336 whole entry): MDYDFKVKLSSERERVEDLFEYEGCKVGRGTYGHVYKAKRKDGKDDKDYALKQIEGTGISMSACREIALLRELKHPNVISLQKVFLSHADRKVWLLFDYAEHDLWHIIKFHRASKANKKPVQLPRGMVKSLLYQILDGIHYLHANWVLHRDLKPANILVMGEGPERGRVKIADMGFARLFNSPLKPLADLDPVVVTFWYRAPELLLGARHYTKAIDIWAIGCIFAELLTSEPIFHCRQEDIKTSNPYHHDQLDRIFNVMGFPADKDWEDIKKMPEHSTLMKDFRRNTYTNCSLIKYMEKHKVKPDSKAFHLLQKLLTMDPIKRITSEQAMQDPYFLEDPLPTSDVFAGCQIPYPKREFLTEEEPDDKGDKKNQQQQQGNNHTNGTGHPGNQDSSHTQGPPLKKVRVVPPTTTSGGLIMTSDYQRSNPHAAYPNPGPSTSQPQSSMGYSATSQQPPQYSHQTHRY
T1 sequence (P24863 whole entry, further chain): as the sequence (P24863 whole entry, further chain) above

## CN1CCN(C(=O)c2ccc3cc(CCNc4ccnc5ccc(C#N)cc45)ccc3c2)CC1
[1]
  IC50: 3.6 nM
[2]
  IC50: 56 nM
[3]
  residual binding, % of control: 29%
[4]
  K: 9.39 10^6/M/s
[5]
  MRT: 0.227 h
[6]
  T1/2: 4.25 min
[7]
  Kd: 1.39 nM
[8]
  Kd: 2.9 nM
[9]
  Activity: Active
[10]
  Activity: Active
[11]
  Activity: Active
[12]
  k el: 1.67e-05 s⁻¹
[13]
  Cmax: 488 ng/mL
[14]
  AUC(0-t) at 24 h: 6410 ng·h/mL
[15]
  k el: 5.56e-05 s⁻¹
[16]
  Tmax: 12 h
[17]
  Cmax: 144 ng/mL
[18]
  AUC: 2182 ng·h/mL
[19]
  Activity: Tde
[20]
  k el: 2.78e-05 s⁻¹
[21]
  half-life: 7.27 h
[22]
  Tmax: 12 h
[23]
  AUC(0-t) at 24 h: 88600 ng·h/mL

— ChEMBL document CHEMBL5046270, “A Selective and Orally Bioavailable Quinoline-6-Carbonitrile-Based Inhibitor of CDK8/19 Mediator Kinase with Tumor-Enriched Pharmacokinetics” (J Med Chem, 2022)
